# Measured values reported in patent US20250195490A1, “ALPHA-METHYLENE AND AMINOMETHYL LACTONES AND LACTAMS FOR TREATMENT OF CLOSTRIDIOIDES DIFFICILE INFECTION (CDI)” (Purdue Research Foundation, priority 2022, published 2025).
# Key:
# E. faecalis (VRE) = assay: microbe, parasite or virus in culture; assay type: cell-based, Enterococcus faecalis; settings: aerobic, 37° C., at least 18 hours
# Description: (§1) Method: The minimum inhibitory concentration (MIC) of the compounds and control drugs, linezolid (antibiotic), vancomycin (antibiotic), 5-fluorocytosine (5-FC, antifungal drug), and fluconazole (antifungal drug) was determined using the broth microdilution method according to the guidelines outlined by the Clinical and Laboratory Standards Institute (CLSI) against clinically relevant bacterial (methicillin-resistant Staphylococcus aureus (MRSA), vancomycin-resistant Enterococcus faecalis (VRE), vancomycin-resistant Enterococcus faecium (VRE), Clostridioides difficile and Escherichia coli) and fungal (Candida albicans) strains. A solution equivalent to 0.5 McFarland standard was prepared from each strain and diluted in cation-adjusted Mueller-Hinton broth (for S. aureus and E. coli), tryptone soy broth (for E. faecalis), or brain heart infusion broth (for E. faecium) to achieve a bacterial inoculum of about 5×10^5 CFU/mL. C. difficile strains were cultured in brain heart infusion broth supplemented with hemin and vitamin K. C. albicans was diluted in RPMI medium supplemented with 3-(N-morpholino) propanesulfonic acid to achieve a fungal concentration of about 1.5×10^3 CFU/mL. Compounds and control drugs were added in the first row of the 96-well plates and diluted with media containing bacteria (to achieve a concentration gradient ranging from 128 to 1 μg/mL). For MRSA, VRE, and E. coli strains, plates were then incubated aerobically at 37° C. for at least 18 hours. C. albicans was incubated aerobically at 37° C. for 24 hours. Plates containing C. difficile were incubated anaerobically at […] for 48 hours.
# MRSA (USA300) = assay: microbe, parasite or virus in culture; assay type: cell-based, Staphylococcus aureus; settings: aerobic, 37° C., at least 18 hours
# Description: as §1
# E. coli (TolC mutant) = assay: MIC by broth microdilution against E. coli (TolC mutant); assay type: cell-based, Escherichia coli; settings: for MIC E. coli (TolC mutant): aerobic, 37° C., at least 18 hours
# Description: as §1
# L. gasseri = assay: MIC against human normal gut microbiota: L. gasseri; assay type: cell-based, Lactobacillus gasseri; settings: L. gasseri HM 407
# Description: (§2) The activity of the selected lactones against the human gut microbiota was also examined. Microbiota interfere with C. difficile's ability to colonize the gastrointestinal tract and subsequently cause infection. Many antibiotics inhibit/kill the endogenous microflora, which permits enhanced colonization by C. difficile and infection. Three different bacterial species that are present in the gut microflora were used in this experiment; Bifidobacterium (anaerobic Gram-positive bacteria), Bacteroides (anaerobic Gram-negative bacteria) and Lactobacillus (microaerophilic Gram-positive bacteria). Ideal compounds/drugs are those with selective antibacterial activity against C. difficile so as to protect the indigenous microflora present in the GI tract from being damaged/killed (which will exacerbate infections caused by C. difficile).
# (§3) Bifidobacterium and Bacteroides were first grown for 48 hours at 37° C., anaerobically, using brain heart infusion supplemented (BHIS) agar (brain heart infusion agar supplemented with hemin, vitamin K and L-cysteine). Lactobacillus was cultivated on MRS agar and incubated in the presence of 5% CO2 for 48 hours at 37° C. Each bacterium was suspended in phosphate-buffered saline (PBS) to achieve 0.5 McFarland standard and subsequently diluted in brain heart infusion supplemented broth (for Bifidobacterium and Bacteroides) or in MRS broth (for Lactobacillus) to achieve a bacterial inoculum of approximately 5×10^5 CFU/mL. Bacteria were then seeded in 96-well plates containing serial dilutions of the compounds and incubated for 48 hours. MICs reported in Table 4 are the minimum concentration of compound/control drug that inhibited the visual growth of bacteria.
# Ba. dorsei = assay: MIC against human normal gut microbiota: Bacteroides dorsei; assay type: cell-based
# Description: as §2, §3
# C. albicans = assay: Broth microdilution against Candida albicans; assay type: cell-based; settings: gradient 128 to 1 μg/mL, 24 hours
# Description: as §1
# L. casei = assay: MIC against human normal gut microbiota: L. casei; assay type: cell-based, Lactobacillus casei; settings: L. casei HM 334
# Description: as §2, §3
# L. reuteri = assay: MIC against human normal gut microbiota: L. reuteri; assay type: cell-based, Lactobacillus reuteri; settings: L. reuteri HM 120
# Description: as §2, §3
# Ba. fragilis = assay: MIC against human normal gut microbiota: Bacteroides fragilis; assay type: cell-based
# Description: as §2, §3
# [1] = system: hypervirulent Clostridioides difficile strains; assay: MIC against hypervirulent Clostridioides difficile strains; assay type: cell-based
# Description: (§4) The antibacterial activity of compounds 48, 50, 51, 61 and 85 against a panel of Clostridioides difficile strains was evaluated. A bacterial solution equivalent to 0.5 McFarland standard was prepared and diluted in brain heart infusion broth supplemented with hemin and vitamin K. Compounds and control drugs were added in the first row of 96-well plates and serially diluted with media containing bacteria (to achieve a concentration gradient ranging from 128 to 1 μg/mL). Plates were then incubated anaerobically at […] for 48 hours.
# Bi. longum = assay: MIC against human normal gut microbiota: Bifidobacterium longum; assay type: cell-based; settings: Bi. longum HM 848
# Description: as §2, §3
# E. faecium = assay: Broth microdilution against vancomycin-resistant E. faecium; assay type: cell-based, Enterococcus faecium; settings: gradient 128 to 1 μg/mL
# Description: as §1
# Clostridioides difficile = assay: MIC by broth microdilution against Clostridioides difficile (Table 1); assay type: cell-based; settings: anaerobic, 48 hours; strain BAA-1870
# Description: as §1
# L. crispatus = assay: MIC against human normal gut microbiota: L. crispatus; assay type: cell-based, Lactobacillus crispatus
# Description: as §2, §3
# [2] = system: clinically important Clostridioides difficile strains; assay: MIC against clinically important Clostridioides difficile strains; assay type: cell-based
# Description: as §4
# Bi. breve = assay: MIC against human normal gut microbiota: Bifidobacterium breve; assay type: cell-based; settings: Bi. breve HM 856
# Description: as §2, §3
Structure (SMILES),MIC (L. gasseri) [µg/mL],MIC (Ba. dorsei; Ba. dorsei HM 29) [µg/mL],MIC (Ba. dorsei; Ba. dorsei HM 717) [µg/mL],MIC E. faecalis (VRE) (E. faecalis (VRE)) [µg/mL],activity against C. albicans (C. albicans),MIC (L. casei) [µg/mL],MIC (L. reuteri) [µg/mL],MIC MRSA (USA300) (MRSA (USA300)) [µg/mL],MIC (Ba. fragilis; Ba. fragilis HM 709) [µg/mL],MIC (Ba. fragilis; Ba. fragilis HM 710) [µg/mL],MIC (Ba. fragilis; Ba. fragilis HM 711) [µg/mL],MIC (Ba. fragilis; Ba. fragilis HM 714) [µg/mL],MIC ([1]; CD strain 81) [µg/mL],MIC ([1]; CD strain 82) [µg/mL],MIC ([1]; CD strain 83) [µg/mL],MIC ([1]; CD strain 84) [µg/mL],MIC ([1]; CD strain 85) [µg/mL],MIC ([1]; CD strain 86) [µg/mL],MIC ([1]; CD strain 87) [µg/mL],MIC ([1]; CD strain 90) [µg/mL],also measured
"CC(=O)NC[C@H]1CN(c2ccc(N3CCOCC3)c(F)c2)C(=O)O1 [Linezolid, reference compound]",–,–,–,–,–,–,–,–,–,–,–,–,–,–,–,–,–,–,–,–,"MIC (E. faecalis (VRE); Enterococcus faecalis, VRE): 1 µg/mL; MIC (MRSA (USA300); Staphylococcus aureus, read-out: MIC MRSA (USA300)): 1 µg/mL; MIC (E. coli (TolC mutant); Escherichia coli, 18 h, read-out: MIC E. coli (TolC mutant)): 16 µg/mL"
C=C1C(=O)O[C@H](c2ccc(OCc3ccccc3)c(OC(C)=O)c2)[C@@H]1c1ccccc1Br (racemic) [Compound 85],>128,>128,>128,>128,inactive,>128,>128,>128,>128,>128,>128,>128,4,2,4,4,2,4,2,2,MIC ([1]; CD strain 49279): 4 µg/mL; MIC ([1]; CD strain 49287): 2 µg/mL; MIC ([1]; CD strain 49291): 2 µg/mL; MIC (Bi. longum): >128 µg/mL; inhibition of the tested strains of E. faecium (E. faecium): did not inhibit; MIC Clostridioides difficile (Clostridioides difficile): 4 µg/mL; MIC (L. crispatus; L. crispatus HM 375): >128 µg/mL; MIC (L. crispatus; L. crispatus HM 421): >128 µg/mL; MIC ([2]; CD strain 16): 4 µg/mL; MIC ([2]; CD strain 18): 4 µg/mL; MIC ([2]; CD strain 19): 4 µg/mL; MIC ([2]; CD strain 1801): 2 µg/mL; MIC ([2]; CD strain 43255): 4 µg/mL; MIC ([2]; CD strain P6): 4 µg/mL; MIC ([2]; CD strain P7): 4 µg/mL; MIC ([2]; CD strain P13): 4 µg/mL; MIC ([2]; CD strain P19): 2 µg/mL; MIC (Bi. breve): >128 µg/mL; MIC E. coli (TolC mutant) (E. coli (TolC mutant)): >128 µg/mL
CC(C)(C)[Si](C)(C)OCCC1OC(=O)C(CN2CCCCC2)C1c1cccc(Br)c1 (racemic) [Compound 48],>128,>128,>128,>128,inactive,>128,>128,>128,>128,>128,>128,>128,16,8,8,8,8,8,4,4,MIC ([1]; CD strain 49279): 8 µg/mL; MIC ([1]; CD strain 49287): 4 µg/mL; MIC ([1]; CD strain 49291): 4 µg/mL; MIC (Bi. longum): >128 µg/mL; inhibition of the tested strains of E. faecium (E. faecium): did not inhibit; MIC Clostridioides difficile (Clostridioides difficile): 8 µg/mL; MIC (L. crispatus; L. crispatus HM 375): >128 µg/mL; MIC (L. crispatus; L. crispatus HM 421): >128 µg/mL; MIC ([2]; CD strain 16): 4 µg/mL; MIC ([2]; CD strain 18): 2 µg/mL; MIC ([2]; CD strain 19): 4 µg/mL; MIC ([2]; CD strain 1801): 8 µg/mL; MIC ([2]; CD strain 43255): 8 µg/mL; MIC ([2]; CD strain P6): 8 µg/mL; MIC ([2]; CD strain P7): 2 µg/mL; MIC ([2]; CD strain P13): 2 µg/mL; MIC ([2]; CD strain P19): 2 µg/mL; MIC (Bi. breve): >128 µg/mL; MIC E. coli (TolC mutant) (E. coli (TolC mutant)): >128 µg/mL
C=C1C(=O)O[C@H](c2c(OC)cc(OC)cc2OC)[C@@H]1c1ccc(C(F)(F)F)cc1 (racemic) [Compound 61],>128,>128,>128,>128,inactive,>128,>128,>128,>128,>128,>128,>128,16,16,64,64,64,32,8,16,MIC ([1]; CD strain 49279): 64 µg/mL; MIC ([1]; CD strain 49287): 8 µg/mL; MIC ([1]; CD strain 49291): 8 µg/mL; MIC (Bi. longum): >128 µg/mL; inhibition of the tested strains of E. faecium (E. faecium): did not inhibit; MIC Clostridioides difficile (Clostridioides difficile): 8 µg/mL; MIC (L. crispatus; L. crispatus HM 375): >128 µg/mL; MIC (L. crispatus; L. crispatus HM 421): >128 µg/mL; MIC ([2]; CD strain 16): 16 µg/mL; MIC ([2]; CD strain 18): 2 µg/mL; MIC ([2]; CD strain 19): 8 µg/mL; MIC ([2]; CD strain 1801): 16 µg/mL; MIC ([2]; CD strain 43255): 4 µg/mL; MIC ([2]; CD strain P6): 8 µg/mL; MIC ([2]; CD strain P7): 8 µg/mL; MIC ([2]; CD strain P13): 8 µg/mL; MIC ([2]; CD strain P19): 8 µg/mL; MIC (Bi. breve): >128 µg/mL; MIC E. coli (TolC mutant) (E. coli (TolC mutant)): >128 µg/mL
